Data reported in patent EP0525360B1, “Novel phenylacetamide derivatives and processes for the preparation thereof” (KOREA RESEARCH INSTITUTE OF CHEMICAL TECHNOLOGY, priority 1991, dated 1993).
Like-named read-outs stand apart in the source and are kept apart here.

Assays:
[1] = system: Rats(Sprague-Dawley, female); assay: Anti-inflammatory test (carrageenin paw edema); type: in vivo; conditions: Rattus norvegicus, sc; s. c., twenty minutes before carrageenin; edema volume 3 hours later; read-out: ED50
Description: Rats(Sprague-Dawley, female) weighing 100 to 120g were used. Twenty minutes after the test drug was administered(s. c.), carrageenin was injected(0.1mℓ of 1% solution, s. c.) in the plantar surface of the right hind paw.
The percentage of inhibition was determined by the following equation: Inhibition(%) =(Volume of the carrageenin treated foot - Volume of the control foot)/(Volume of the contol foot)x 100 [formula]

[2] = system: Rats(Sprague-Dawley, female); assay: Local anti-inflammatory test (transdermal, carrageenin paw edema); type: in vivo; conditions: for Double Dose(24 hr), percentage of inhibition: transdermal double dose (second application 7 hours later), edema measured 24 hours later; for Single Dose(1 hr), percentage of inhibition: transdermal single dose, edema measured 1 hour later
Description: Rats(Sprague-Dawley, female) weighing 100 to 120g were used. 20 minutes after the test drug was administered transdermally (another application 7 hours later for double dose experiment), carrageenin was injected(0.1ml of 1% solution, s. c.) into the plantar surface of the right hind paw. The volume of the edema was measured with a volumeter either 1 hour later for […] dose experiment or 24 hours later for double dose experiment; and the percentage of inhibition was measured by the same equation as used in Anti-inflammatory Test.

[3] = system: mice; assay: Hot-plate test; type: in vivo; conditions: p. o.
Description: Mice were placed on an aluminum plate maintained at 55± 0.5°C by a thermo-regulator(Harvard). A glass cylinder, 15cm in height and 15cm in diameter, served to confine the mice to the heated plate. Blowing of the fore paws was used as the end-point for determination of response latency(measured to the neatest 0.1 second).

[4] = system: Male albino rats(120-170g) of the Charles River Sprague-Dawley strain; assay: Randall-Selitto test (yeast induced hyperalgesia); type: in vivo; conditions: dose 5 mg/Kg p. o.; 5 rats
Description: Randall-Selitto Test was carried out by following the method described in Arch. Int. Pharmacodyn.
Male albino rats(120-170g) of the Charles River Sprague-Dawley strain were used. Inflammation was produced by the injection of 0.1mℓ of a 20% suspension of Brewer's yeast into the plantar surface of the rat's hind foot.
The pain threshold was measured as the pressure in mmHg required to induce the desired response(a sharp audible squeak and/or struggle) when the pressure was applied to the foot. Air pressure from an air line was admitted through a needle valve to a 20mℓ glass syringe and to a pressure gauge which was connected by a T-tube. The syringe was mounted with the plunger downward to which was connected a short bullet-shaped Teflon peg. The pressure was applied to the foot of the rat at the rate of 10 mmHg per second. Drug was given 2 hours after the yeast injection. Two hours after the drug administration, threshold response was determined.
The analgesic activity was determined in terms of the percentage of inhibition of response: Inhibition(%) =(Threshold of the treated group - Threshold of the control group)/(Threshold of the control group)x 100 [formula]

[5] = system: Salmonella typhimurium TA 100; assay: mutagenicity test (Maron and Ames); type: cell-based; conditions: 3.2, 16, 80 and 400µg/plate
Description: (§1) The numbers of mutated colonies were not increased at concentrations of 3.2, 16, 80 and 400µg/plate for the test compound.

[6] = system: Salmonella typhimurium TA98; assay: mutagenicity test (Maron and Ames); type: cell-based; conditions: 3.2, 16, 80 and 400µg/plate
Description: as §1

[7] = Use Examples: administration of compositions to human subjects; type: in vivo; conditions: 0.4mℓ on 80cm^2 of the forearm, 60kg male adult
Description: One tablet was administered orally to a patient(weight: 67kg) in need of analgesia two times daily to successfully provide the effect of general analgesia.
The compound of Example 5 was dissolved in sesame oil with the aid of sonication and was packaged in soft gelatin capsules using the common methods known in the art.
The above ingredients were mixed to produce a syrup which was packaged under a sterile condition in 6 oz. bottles. One teaspoon of this formulation was administrated to a 70kg adult, reducing inflammation and producing analgesia.
The compound of Example 1 was dissolved in a solution containing the other ingredients.

[8] = system: Rats(Sprague-Dawley); assay: Tail-pinch test in rats with hyperalgesia induced by Freund's adjuvant; type: in vivo
Description: Rats(Sprague-Dawley) weighing 120g to 170g were used. Desiccated Mycobacterium butyricum(Difco Laboratories, Detroit, MI) was ground in a mortar, suspended in liquid paraffin, sterilized in an autoclave, and injected(0.5mg in 0.1mℓ, s.c.) in the distal region of the tail through a 1-inch 21-gauge needle. […] The hypersensitivity of the tail was examined as follows: the animal was held comfortably in one hand and gentle pressure was applied with the fingers of the opposite hand to the injected area. This gentle squeeze or "tail pinch" elicited a "squeak" from the animal. Five such stimuli were given at 4-second intervals. If the animal emitted no more than one squeak in five trials, it was recorded as having analgesia and given a rating of 1. […] The analgesic activity was determined by the following equation: Analgesic activity =(Total rating)/(Tested aminal number)x 100 [formula] The compound of Example 1, administered two hours before tail-pinch testing perorally, caused a dose related inhibition of adjuvant induced hyperalgesia, as shown in Table 6.

[9] = system: mice; assay: Tail-flick test (radiant heat); type: in vivo
Description: Radiant heat was applied using a beam of high-intensity light focused on a tail spot. The response time, defined as the interval between the onset of the stimulus and the tail flick, was measured electronically(to the nearest 0.1 second). The beam intensity was set at a level giving a mean control reaction time of 3.8±0.4 seconds. […] The percentage of inhibition was determined by the following equation: Inhibition(%) =(Reaction time of the treated group - Reaction time of the control group)/(Reaction time of the control group)x 100 [formula]

[10] = system: KTC-ICR mice; assay: acetic acid induced writhing test; type: in vivo; conditions: Mus musculus; oral; 0.9% acetic acid i.p. 60 minutes later; writhings during 10 minutes; mice 20 to 25g; Examples 1 to 32
Description: The KTC-ICR mice derived from Charles River Breeding Laboratory in the United States and provided by Experimental Animal Laboratory of Korea Research Institute of Chemical Technology were used as test animals. […] They were tested after having been adjusted to the testing environment for a week. Food and water were given freely; and illumination was maintained on a 12-hour cycle.
Experiments were performed in two ways: that is, the acetic acid induced writhing test and the phenyl-1,4-benzoquinone(PBQ) induced writhing test.
Solutions for the acetic acid induced writhing test were prepared by dissolving one of the end products prepared in Examples […] in a saline solution containing 1% by weight of Tween 80 to have a concentration of 5mg/mℓ and diluting it serially with the saline solution. The test solutions were administered orally in a dose of 0.3mℓ per 30g of body weight, using the 5 ICR mice for each test. 60 minutes later, 0.9% acetic acid solution was administered intraperitoneally in a dose of 0.1mℓ per 30g of body weight. 3 minutes thereafter, the number of writhings generated during a period of 10 minutes due to the administration of acetic acid was measured. For comparison purpose, initially, saline solution alone was administered orally to the control group. 60 minutes thereafter, 0.9% acetic acid solution was administered intraperitoneally to the control group.
The number of writhings suffered by the test group was compared with that of the control group; and the analgesic effect was measured in terms of the percentage of inhibition of writhing(I. W.). I. W. (%) =(A - B)/(A)x 100 [formula] A : the number of writhings suffered by the control group, B : the number of writhings suffered by the test group.
These ED50 values for the test compounds are shown in the last column of Table 1.

[11] = acute toxicity test; conditions: mouse, in vivo, po, per os, 5 weeks old, observed for 14 days
[12] = dose 5 mg/Kg, 7 rats, Example 1 perorally two hours before testing

COc1cc(CC(=O)NCCCc2ccc(C)c(C)c2)ccc1OCCN [Example 1, N-{3-(3,4-dimethylphenyl)propyl}-4-(2-aminoethoxy)-3-methoxyphenylacetamide]
ED50 [1]: 4 mg/kg
Double Dose(24 hr), percentage of inhibition [2]: 32%
Single Dose(1 hr), percentage of inhibition [2]: 66%
Inhibition(%) ([3]; dose 2.5 mg/Kg): 28.6%
Inhibition(%) ([3]; dose 5.0 mg/Kg): 48.9%
Inhibition(%) ([3]; dose 10.0 mg/Kg): 97.0%
Inhibition(%) [4]: 247.4%
numbers of mutated colonies [5]: not increased
numbers of mutated colonies [6]: not increased
local analgesia after topical application ([7]; Use Example 5 liquid (4g in glycerol/water)): local analgesia which lasted for two days
skin irritation after topical application ([7]; Use Example 5 liquid): Little or no skin irritation was observed
Analgesic activity(%) [8, 12]: 45.9%
Analgesic activity(%) ([8]; dose 10 mg/Kg, 6 rats, perorally two hours before testing): 66.7%
Inhibition(%) ([9]; p. o., dose 1.25 mg/Kg): 10%
Inhibition(%) ([9]; p. o., dose 2.5 mg/Kg): 60%
Inhibition(%) ([9]; p. o., dose 5.0 mg/Kg): 80%
Inhibition(%) ([9]; p. o., dose 7.5 mg/Kg): 90%
Inhibition(%) ([9]; s. c., dose 0.5 mg/Kg): 50%
Inhibition(%) ([9]; s. c., dose 1.0 mg/Kg): 70%
ED50 [10]: 0.08 mg/kg
LD50 at 336 h ([11]; 5 ICR female mice, read-out: LD50(female)): 364 mg/kg
LD50 at 336 h ([11]; 5 ICR male mice, read-out: LD50(male)): 224 mg/kg

COc1ccc2cc([C@H](C)C(=O)O)ccc2c1 [Naproxen, reference compound]
ED50 [1]: 43 mg/kg
Double Dose(24 hr), percentage of inhibition [2]: 25%
Single Dose(1 hr), percentage of inhibition [2]: 54%
Analgesic activity(%) [8, 12]: 28.6%
